# From article PMC12661054, “The CIP2A-TOPBP1 axis facilitates mitotic DNA repair via MiDAS and MMEJ” (Nature Communications, 2025)
# Assays:
# [1] = biological target: T1, TOPBP1 BRCT 0-1-2 WT (Homo sapiens, UniProt Q92547); assay: Fluorescence polarisation, TOPBP1 BRCT0-1-2 WT; format: binding; conditions: GST-tagged TOPBP1 fragment, peptide 100 nM, pH 7.5
# T1 construct: transformed with pGEX-6P-1 TOPBP1(BRCT0-2 1-290) WT and K155E, K250E and K155E/K250E mutant variants; GST (N); made in house; host or cells: E. coli BL21(DE3)
# T1 sequence (Q92547 1-290): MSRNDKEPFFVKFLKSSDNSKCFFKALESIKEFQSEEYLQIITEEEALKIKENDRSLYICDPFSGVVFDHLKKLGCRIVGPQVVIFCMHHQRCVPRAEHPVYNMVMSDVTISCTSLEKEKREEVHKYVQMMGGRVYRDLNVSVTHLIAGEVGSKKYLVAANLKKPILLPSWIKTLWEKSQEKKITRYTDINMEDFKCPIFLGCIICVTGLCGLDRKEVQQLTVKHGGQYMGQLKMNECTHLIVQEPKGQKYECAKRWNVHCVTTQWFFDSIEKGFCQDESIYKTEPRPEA
# Protocol: E.coli BL21(DE3) cells were transformed with pGEX-6P-1 TOPBP1(BRCT0-2 1-290) WT and K155E, K250E and K155E/K250E mutant variants for protein expression. Cell pellets were resuspended in lysis buffer containing 25 mM HEPES pH 7.5, 200 mM NaCl and 0.5 mM TCEP supplemented with 50U Turbo DNase, disrupted by sonication, and the resulting lysate clarified by centrifugation at 36,000 x g for 60 min at 4 °C. The supernatant was applied to a 5 ml HiTrap GST column, then washed with buffer containing 50 mM HEPES pH 7.5, 1000 mM NaCl, 0.25 mM TCEP, before the retained protein was eluted by application of the lysis buffer supplemented with 20 mM glutathione. […]
# (§1) In vitro fluorescence polarisation
# Fluorescein-labelled peptides corresponding to amino acids 1253-1267 or 1470-1483 of SLX4 incorporating pT1260 or pT1476 respectively, were incubated at a concentration of 100 nM at room temperature with increasing concentrations of TOPBP1 WT or mutant BRCT module variants[26] in 25 mM HEPES pH 7.5, 150 mM NaCl, 1 mM EDTA, 0.25 mM TCEP, 0.002% (v/v) Tween 20 in a black 96-well polypropylene plate. […] Fluorescence polarisation was measured in a CLARIOstar multimode microplate reader. Binding curves were calculated assuming a single binding site with non-specific binding component, using Graphpad Prism10.2.3 (GraphPad Prism, RRID: SCR_002798). […]
# [2] = system: TOPBP1 BRCT 4-5; assay: Fluorescence polarisation, TOPBP1 BRCT 4-5; format: binding, human; conditions: peptide 100 nM, pH 7.5
# Protocol: as §1
# (§2) Fluorescein-labelled peptides corresponding to amino acids 1253-1267 or 1470-1483 of SLX4 incorporating pT1260 or pT1476 respectively, were incubated at a concentration of 100 nM at room temperature with increasing concentrations of TOPBP1 WT or mutant BRCT module variants[26] in 25 mM HEPES pH 7.5, 150 mM NaCl, 1 mM EDTA, 0.25 mM TCEP, 0.002% (v/v) Tween 20 in a black 96-well polypropylene plate. Additional experiments performed with dephosphorylated peptide were achieved though incubation with Lambda phosphatase supplemented with 1 mM MnCl2 to remove the phosphorylation on the peptide. Fluorescence polarisation was measured in a CLARIOstar multimode microplate reader. Binding curves were calculated assuming a single binding site with non-specific binding component, using Graphpad Prism10.2.3 (GraphPad Prism, RRID: SCR_002798). Binding affinities are presented as calculated values alongside the 95% CI values. The presented graphs represent data plotted with the non-specific binding component subtracted.
# [3] = system: TOPBP1 BRCT 7-8; assay: Fluorescence polarisation, TOPBP1 BRCT 7-8; format: binding, human; conditions: peptide 100 nM, pH 7.5
# Protocol: as §1, §2
# [4] = system: HCT116-TOPBP1-mAID-Clover cells; assay: TOPBP1 degron assay, HCT116-TOPBP1-mAID-Clover cells; format: cell-based, human
# Protocol: Immunofluorescence microscopy
# (§3) For detection of EdU incorporation in mitosis and the analysis of recruitment of TOPBP1, CIP2A, MUS81, ERCC1, TOPBP1-mAID-Clover, eGFP tagged SLX4 and eGFP tagged Polθ in RPE1 p53^-/- FRT/TR and DLD1 BRCA2^-/-cells, respectively, cells were grown on 13 mm 1.5 thickness coverslips and treated as described. Subsequently cells were simultaneously fixed and permeabilised in PTEMF buffer (20 mM PIPES pH 6.8, 10 mM EGTA, 0.2% Triton X-100, 1 mM MgCl2 and 4% formaldehyde) for 10 minutes at room temperature. For detection of micronuclei, cells were fixed in 250 mM HEPES pH 7.5, 0.1% Triton X-100, 4% PFA in PBS for 20 minutes at 4 °C.
# (§4) Quantification was carried out using FIJI (ImageJ, RRID:SCR_003070) software, CellProfiler (Broad Institute), Harmony (Revvity) or using Aivia (Leica Microsystems). Images of mitotic cells were analysed in 3D with maximum Z projections used for representative images in the manuscript to assist with visualisation.For interphase cells 2D images were analysed.
# [5] = system: RPE1 p53-/- FRT/TR cells; assay: Micronuclei formation, RPE1 p53-/- FRT/TR cells; format: cell-based, human; conditions: 5 µM ART558, 18 h, with 400 nM aphidicolin, three independent experiments
# Protocol: as §3
# Coverslips were then incubated for 5 min in 1x PBS with three buffer changes followed by incubation with 0.5% Triton X-100/ PBS for 10 min at room temperature. Coverslips were then incubated for 5 minutes in 1x PBS with three buffer changes. […]
# as §4
# [6] = system: DLD1 BRCA2-/- cells; assay: Proliferation (Incucyte), DLD1 BRCA2-/- cells; format: cell-based, human; conditions: 5 µM ART558 + siSLX4, compared to siCIP2A; three independent experiments
# Protocol: For proliferation analysis of DLD1 BRCA2^-/- cells after treatment with siRNA as indicated, 72 h post-transfection of the first pulse of siRNA, 1500 cells were seeded per well in a PhenoPlate 96-well optically clear tissue culture plate (Revvity, 6055302). […] The following day the media was aspirated and replaced with 200 µl of RPMI 1640 medium containing standard antibiotics, 10% FBS and 2 mM L-glutatmine.
# To analyse cellular proliferation of DLD1 BRCA2^-/- or SUM149PT BRCA1^-/-cells expressing a minimal SLX4 T1260 containing fragment, 1500 cells were seeded per well in a PhenoPlate 96-well optically clear tissue culture plate (Revvity, 6055302). […] The following day the medium was aspirated and replaced with 200 µl of RPMI 1640 medium containing standard antibiotics, 10% FBS and 2 mM L-glutatmine (DLD1 BRCA2^-/- SLX4 T1260 fragment cells or empty vector control expressing) or S Ham’s F-12 medium supplemented with 5% FBS, 10 μg/mL insulin, 0.5 μg/mL hydrocortisone and penicillin/streptomycin antibiotics for SUM149PT BRCA1^-/- (SLX4 T1260 fragment or empty vector control expressing) containing 1 µg/ml doxycycline.
# [7] = system: RPE1 p53-/- cells; assay: Immunofluorescence foci, RPE1 p53-/- cells; format: cell-based, human
# Protocol: Immunofluorescence microscopy […] For detection of micronuclei, cells were fixed in 250 mM HEPES pH 7.5, 0.1% Triton X-100, 4% PFA in PBS for 20 minutes at 4 °C. Coverslips were then incubated for 5 min in 1x PBS with three buffer changes followed by incubation with 0.5% Triton X-100/ PBS for 10 min at room temperature. Coverslips were then incubated for 5 minutes in 1x PBS with three buffer changes. For EdU detection coverslips were transferred to a humidified chamber and incubated in EdU click it reaction buffer containing Alexafluor 488 azide for 1 h at room temperature followed by three 5 min washes in 1x PBS. Coverslips were then incubated in 5% FBS/PBS for 1 h followed by overnight incubation at 4 °C with primary antibody diluted in 5% FBS/PBS. Coverslips were then washed 3 × 5 min in 1x PBS followed by 1 h incubation at room temperature in 5% FBS/PBS containing secondary antibodies. Coverslips were incubated a further three times for 5 min in 1x PBS. Coverslips were then mounted on superfrost microscopy slides using Vectashield mounting medium with DAPI (Vector laboratories, […]). […] Cells were fixed in […] for 15 min at room temperature, followed by 3 × 5 min washes in 1xPBS. Coverslips were then incubated in 0.5% Triton-X/PBS for 10 min at room temperature, followed by a further 3 × 5 min 1xPBS washes. Coverslips were then incubated in blocking buffer (2% BSA, 0.05% Tween-20) for 1 h at room temperature, followed by incubation in respective primary antibodies overnight at 4 °C. Coverslips were then washed 3x for 5 min in 1x PBS followed by incubation for 1 h at room temperature in blocking buffer containing secondary antibodies. Coverslips were then washed 3x for 5 min in 1x PBS and mounted with Vectashield PLUS antifade mounting medium with DAPI (Vector laboratories, […]). Images were acquired using a Zeiss Axio Observer Z1 MarianasTM Microscope attached with a CSU-SoRa spinning disk unit using either a Photometrics Kinetix sCMOS camera built by Intelligent Imaging Innovations (3i) or a Zeiss Axio Observer Z1 MarianasTM Microscope attached with a CSUX1 spinning disk unit and Hamamatsu Flash 4 CMOS camera built by Intelligent Imaging Innovations (3i) or using an Opera Phenix Plus high content imaging system (Revvity). In each case 405, 488 and 640 laser lines were used in addition to DAPI, GFP/FITC, iRFP/CY5 emission filters. Quantification was carried out using FIJI (ImageJ, RRID:SCR_003070) software, CellProfiler (Broad Institute), Harmony (Revvity) or using […] Microsystems). Images of mitotic cells were analysed in 3D with maximum Z projections used for representative images in the manuscript to assist with visualisation.For interphase cells 2D images were analysed.
compound,measurement,setting,value
"‘Flu’-GYGSPGLLDT(pT)PIRGSCT [SLX4 pT1476, Fluorescein-labelled peptide corresponding to amino acids 1470-1483 of SLX4 incorporating pT1476]",interaction with TOPBP1 BRCTs 0-1-2,[1],did not bind
same,interaction with TOPBP1 BRCTs 4-5,[2],no interaction was detected
same,interaction with TOPBP1 BRCTs 7-8,[3],no interaction was detected
"O=C(O)Cc1c[nH]c2ccccc12 [IAA, Indole-3-acetic acid]",MUS81 foci formation in prometaphase after acute TOPBP1 degradation,"[4]; 500 µM IAA, 2 h, 40 ng/ml nocodazole, three independent experiments",near total abolishment of MUS81 foci formation in prometaphase
same,anaphase abnormalities after acute TOPBP1 degradation,"[4]; IAA-induced degradation of TOPBP1 in G2/M, release into mitosis",marked increase in anaphase abnormalities
Cc1cccc(N(C)C(=O)[C@@H]2[C@H](O)CCN2c2nc(C)cc(C(F)(F)F)c2C#N)c1 [Polθi],"micronuclei formation, WT cells",[5],increase in micronuclei formation
same,"proliferation, DLD1 BRCA2-/- cells depleted of SLX4",[6],broadly similar loss of proliferative capacity compared to the single depletion of CIP2A alone
C[C@@]1(CO)[C@H](O)CC[C@@]2(C)[C@H]1CC[C@H]1C[C@@H]3C[C@@]12CC[C@]3(O)CO [aphidicolin],CIP2A–γH2AX colocalising foci in mitosis,"[7]; 400 nM aphidicolin 18 h, nocodazole 60 ng/ml 2 h, RPE1 p53-/- FRT/TR WT, three experiments",striking increase in CIP2A–γH2AX colocalising foci in mitosis
same,RAD9 TOPBP1 colocalising foci,"[7]; 400 nM aphidicolin 18 h, nocodazole 60 ng/ml 2 h, RPE1 p53-/- FRT/TR, two experiments (peer review file Fig. R1B)",increase in response to aphidicolin treatment
same,"WT SLX4 recruitment to prometaphase chromatin, colocalised with CIP2A","[7]; 400 nM aphidicolin 18 h, nocodazole 60 ng/ml 2 h, RPE1 p53-/- SLX4-/- + eGFP-SLX4 WT, three independent experiments",recruited to prometaphase chromatin in response to replicative stress induced by aphidicolin and colocalised with CIP2A
same,colocalisation between CIP2A and FANCD2 foci on mitotic chromatin,"[7]; 400 nM aphidicolin 18 h, nocodazole 60 ng/ml 2 h, RPE1 p53-/- WT, three experiments",detected colocalisation between CIP2A and FANCD2 foci on mitotic chromatin
same,"TOPBP1, SLX4, and MUS81 foci during interphase",[7]; RPE1 cells treated with aphidicolin,"elevated formation of TOPBP1, SLX4, and MUS81 foci during interphase"
same,"mitotic colocalisation of SLX4, MUS81 or ERCC1 with TOPBP1 in prometaphase","[7]; RPE1 cells, aphidicolin","elevated mitotic colocalisation of SLX4, MUS81 or ERCC1 with TOPBP1 in prometaphase"
same,colocalisation between γH2AX and MUS81,[7]; RPE1 p53-/- cells treated with aphidicolin,The same observation was made for colocalisation between γH2AX and MUS81
same,colocalising γH2AX and SLX4 foci,[7]; aphidicolin treated RPE1 p53-/- cells,significant increase in colocalising γH2AX and SLX4 foci
same,MDC1 foci formation in mitosis,[7]; aphidicolin-treated RPE1 cells compared to control,elevated MDC1 foci formation in mitosis
